Entries after “also recorded” stand apart in the source; their conditions may differ.
Legend:
S. aureus AM1 = experiment: Pulldown binding assay, Langmuir isotherm fit, S. aureus; design: species or system Staphylococcus aureus; settings: for Langmuir Affinity (Ka): association constant from Langmuir isotherm fit, fluorescein-labeled peptide 0-100 μM; for Monolayer Concentration (N): maximum surface concentration from Langmuir fit
Text: (§1) To investigate whether the changes in the observed level of binding were due to changes in the affinities or avidities of the refined peptides for cell surfaces, binding curves were generated for selected peptides and fit to the Langmuir isotherm (where possible), the simplest model describing binding to surfaces (peptides showing either complex or nonspecific binding isotherms were excluded from this analysis).
(§2) Measurements were taken of the absorbance of the labeled peptide at 488 nm (the peak absorbance of the fluorescein label) before and after exposure to the cells. The amount of peptide bound was calculated by comparing the ratio of the final (Af) and initial (Ai) absorbances to the initial concentration (C0)[Cbound=C0(1−(Af/Ai))]. Bacterial surface area per sample was calculated using a stage micrometer to determine the average cell diameter for each species (1.0+/−0.1 μm for S. aureus AM1, 2.7+/−0.1 μm for M. luteus MS2), treating individual cells as discrete spheres. Average cell concentration per unit OD600 was calculated using a hemocytometer.
(§3) Plots were then generated of the amount of peptide bound per m^2 of bacterial surface area vs. the concentration of unbound peptide at equilibrium. Where possible, the resulting isotherms were fit to the Langmuir isotherm (P/A=(KaNCeq)/(1+KaCeq), where P/A represents the molar amount of peptide bound per unit of bacterial surface area, Ka is the association constant of the peptide with the bacterial surface (L/Mol), N is the maximum surface concentration (mol/m^2), and Ceq is the molar concentration of unbound peptide at equilibrium) (Calis et al. (1995) Pharm Res 12(7): 1072-1076). Data plots and curvefits were obtained using Kaleidagraph (Synergy Software).

M. luteus MS2 = experiment: Pulldown binding assay, Langmuir isotherm fit, M. luteus; design: species or system Micrococcus luteus; settings: for Langmuir Affinity (Ka): association constant from Langmuir isotherm fit; for Monolayer Concentration (N): maximum surface concentration from Langmuir fit
Text: as §1, §2, §3

[1] = test system: immobilized S. aureus cells; experiment: Fluorescence microscopy binding of labeled peptides to immobilized bacteria, S. aureus; design: species or system Staphylococcus aureus; settings: for Binding to S. aureus (fluorescent staining): 25 μM fluorescein-labeled peptide, 10 minutes, immobilized cells
Description: (§4) Peptide samples were prepared at a concentration of 25 μM for screening against a variety of organisms by exposing immobilized bacteria to labeled peptides. For bacterial cell binding assays, cells were grown overnight, washed, and immobilized in a polylysine-coated 96-well plate. Fluorescein-labeled peptide samples were applied to immobilized bacteria, incubated for 10 minutes and washed extensively to remove unbound peptide. Samples were visualized by fluorescence microscopy. For each peptide, both brightfield and fluorescence images were collected, and camera and microscope settings were not altered between images. The locations of cells and background regions were determined using the brightfield images; those regions were then selected in the fluorescence images for quantitation of pixel values for determination of relative fluorescence intensities (represented as bacterial fluorescence/background fluorescence) using the GNU Image Manipulation Program (The GIMP, see, e.g., www.gimp.org).
The following bacterial species and strains were used: Lactobacillus casei (strain), Escherichia coli (W3110), Enterococcus faecium (strain), Streptococcus mutans (UA140), Streptococcus mitis (ATCC 903), Streptococcus gordonii (NY101), Pseudomonas aeruginosa(strain K), Klebsiella pneumoniae (KAY2026), Myxococcus xanthus (Strains DK1622, wildtype, and difA, exopolysaccharide deficient^21), Micrococcus luteus (strain MS2, a community isolate), Staphylococcus epidermidis (strain), and Staphylococcus aureus(strains, and AM1, a methicillin/oxacillin-resistant community isolate).
For isolation of community-acquired S. aureus and M. luteus strains (strains MS2 and AM1), swabs were collected from the nostrils of several volunteers and streaked on Brain-Heart Infusion (BHI) agar and incubated at 37° C. overnight. Yellow colonies were isolated and typed (Microbial ID, Inc., Newark, Del.). Antibiotic resistance was assayed by plating on BHI in the presence of various antibiotics. Commercially available antibiotic susceptibility test disks were used to assay for oxacillin resistance (BD Biosciences), according to the manufacturer's instructions. Due to the difficulty of obtaining methicillin, oxacillin resistance was used as a proxy for methicillin resistance in isolated strains.^22
The peptides comprising these two refined libraries were synthesized, labeled, and screened against immobilized S. aureus cells exactly as for the original pilot library.
(§5) To examine the specificities of the peptides identified in this experiment, a diverse panel of various strains of bacteria was assembled, consisting of Lactobacillus casei, Escherichia coli, Enterococcus faecalis, Streptococcus mutans, Streptococcus mitis, Streptococcus gordonii, Pseudomonas aeruginosa, Klebsiella pneumoniae, Micrococcus luteus (strain MS2), Staphylococcus epidermidis, and two strains of Staphylococcus aureus: a methicillin/oxacillin-sensitive community isolate and our methicillin/oxacillin-resistant community isolate of (strain AM1). Peptides 3C and 4D from the original pilot library were screened for binding against these bacteria by fluorescence microscopy, and images were analyzed as before.

M. luteus = experiment: Fluorescence microscopy binding of labeled peptides to immobilized bacteria, M. luteus; design: species or system Micrococcus luteus; settings: 25 μM fluorescein-labeled peptide, immobilized cells
Description: as §4, with “www.gimp.org). […]” for “www.gimp.org).”
as §5

[2] = test system: diverse panel of various strains of bacteria; experiment: Specificity screen by fluorescence microscopy against a bacterial panel; assay type: binding; settings: bacteria other than S. aureus and M. luteus
Description: as §4, with “www.gimp.org). […]” for “www.gimp.org).”
as §5

[3] = test system: Candida albicans cells (strain 4741); experiment: Pilot library binding to Candida albicans cells; settings: fluorescence image
Description: as §4
(§6) The use of this technology is not limited to bacterial surfaces.

[4] = test system: Chinese Hamster Ovary (CHO) cells; experiment: Pilot library binding to CHO cells; settings: fluorescence image
Description: as §4, §6

[5] = Confocal laser scanning microscopy of labeled peptides on tooth sections; assay type: binding; settings: sectioned human tooth, CLSM
Text: The fluorescein-labeled peptides in the initial pilot library were pooled and screened by Confocal Laser Scanning Microscopy as follows. The quadrants of the library were collected into four pools of 9 peptides each. Peptides were screened by exposing the pooled, 5(6)-carboxyfluorescein-labeled peptides to sections taken from human teeth (extracted during normal clinical practice), followed by visualization of the samples by Confocal Laser Scanning Microscopy (CLSM).

Pilot Library 3C: pilot library 9-mer, SEQ ID NO:23; became A1 of the in-plane matrix (SEQ ID NO:46) (LISYILTQL; synthetic pilot library peptide C3)
Langmuir Affinity (Ka) (S. aureus AM1): 5.6 ± 0.9 M^−1 × 10000 | Monolayer Concentration (N) (S. aureus AM1): 0.31 ± 0.2 Mol/m^2 × 0.0001 | Langmuir Affinity (Ka) (M. luteus MS2): 4 ± 1 M^−1 × 10000 | Monolayer Concentration (N) (M. luteus MS2): 0.12 ± 0.02 Mol/m^2 × 0.0001 | Binding to S. aureus (fluorescent staining) [1]: Binding was clearly seen; also recorded: binds well | Binding to S. aureus (fluorescent staining) ([1]; listed as Pilot Library C3): some of the brightest unique staining | Binding to M. luteus (fluorescent staining) (M. luteus): Binding was clearly seen; also recorded: binds well | Binding to the other bacteria of the panel [2]: significant levels of binding to several of the other bacteria tested; also recorded: significant binding to several strains

Pilot Library 3A: pilot library 9-mer, SEQ ID NO:11 (WWSYWWTQW; synthetic pilot library peptide A3)
Binding to C. albicans [3]: binding | Binding to CHO cells [4]: binding

Pilot Library E4: pilot library 9-mer, SEQ ID NO:36 (AMKDAMERM; synthetic pilot library peptide E4)
Binding to dentin [5]: No significant staining | Binding to tooth enamel and enamel side of the dentin-enamel junction [5]: clear fluorescent staining

In-plane refinement 1B: in-plane refined library peptide, SEQ ID NO:50 (IVSYVITQL; synthetic in-plane refinement library peptide B1)
Langmuir Affinity (Ka) (M. luteus MS2): 2.4 ± 0.8 M^−1 × 10000 | Monolayer Concentration (N) (M. luteus MS2): 0.11 ± 0.02 Mol/m^2 × 0.0001 | Binding to S. aureus (fluorescent staining) [1]: strongest binding | Binding to immobilized S. aureus relative to peptides of the original pilot library ([1]; refined libraries, fluorescence images): enhanced binding | Binding to M. luteus (fluorescent staining) (M. luteus): strongest binding | Binding to the other bacteria of the panel [2]: no significant binding

Pilot Library 4D: pilot library 9-mer, SEQ ID NO:30; corner of the in-plane matrix (SEQ ID NO:61) (VAKDVAERV; synthetic pilot library peptide D4)
Langmuir Affinity (Ka) (S. aureus AM1): 5 ± 3 M^−1 × 10000 | Monolayer Concentration (N) (S. aureus AM1): 0.12 ± 0.3 Mol/m^2 × 0.0001 | Langmuir Affinity (Ka) (M. luteus MS2): 5 ± 2 M^−1 × 10000 | Monolayer Concentration (N) (M. luteus MS2): 0.16 ± 0.02 Mol/m^2 × 0.0001 | Binding to S. aureus (fluorescent staining) [1]: Binding was clearly seen | Binding to S. aureus (fluorescent staining) ([1]; listed as Pilot Library D4): some of the brightest unique staining | Binding to M. luteus (fluorescent staining) (M. luteus): Binding was clearly seen | Binding to the other bacteria of the panel [2]: significant levels of binding to several of the other bacteria tested; also recorded: significant binding to several strains

AMKDAMERM (synthetic peptide with tissue-specific binding to tooth enamel and enamel-proximal region of dentino-enamel junction) [Pilot Library 4F]
Binding to dentin [5]: no obvious binding | Binding to tooth enamel and enamel side of the dentin-enamel junction [5]: clear binding

Reference: patent publication US20090298707A1, “SPARSE MATRIX SYSTEM AND METHOD FOR IDENTIFICATION OF SPECIFIC LIGANDS OR TARGETS” (priority 2008, published 2009)
